Measured values reported in article PMC7687371, “Quantitative in Vitro to in Vivo Extrapolation (QIVIVE) for Predicting Reduced Anogenital Distance Produced by Anti-Androgenic Pesticides in a Rodent Model for Male Reproductive Disorders” (Environmental Health Perspectives, 2020).
Where two headings read alike, the source gives them in different places.

How the values were obtained:
[1] = set-up: method as in U.S. EPA 2012; conditions: EPI Suite, experimental preferred over modeled; ref U.S. EPA 2012; cited from earlier work
[2] = PBK model first-order kinetic parameters fitted to in vivo ADME data; set-up: species or system rat; conditions: PBK model parameter; for Metabolism rate in liver, Total (L/h) KMetab: metabolic clearance
[3] = Fetal chemical exposure analysis (LC-QTOF) at GD21; assay type: in vivo, rat
In short: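 Rat dams killed at GD21; pooled fetal trunk plasma (by sex, per litter, ~90 min post-dose) and amniotic fluid stored at −80 °C. Samples extracted with acetonitrile (C-18 cleanup) and analysed by positive-ESI LC-QTOF; quantified from (M+H)+ extracted-ion chromatograms ±0.005 Da against matrix-matched plasma standards.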

NCI-H295R cells = assay: H295R steroidogenesis assay; assay type: cell-based, human; conditions: for Effect on androgen (steroid) synthesis, in words: H295R steroidogenesis assay; for IC50 / IC20: Homo sapiens; for IC50: 48 h; for IC20: read-out: Testosterone inhibition (IC20 µM)
In short: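 Human adrenocortical NCI-H295R cells exposed 48 h to compounds in 2-fold dilutions from 0.8 to 50 μM (0.1% DMSO), three independent experiments. Ten steroid hormones in medium measured by LC-MS/MS and normalized to solvent controls; viability checked by MTT.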

[4] = NCI-H295R, read-out: Testosterone inhibition (IC50, μM)

| SMILES | log Kow [1] | Fecal excretion rate from gut (L/h) KFeces [2] [L/h] | Portal GI absorption rate into liver (L/h) KAS [2] [L/h] | Urine excretion rate from kidney (L/h) KUrine [2] [L/h] | Metabolism rate in liver, Total (L/h) KMetab [2] [L/h] | Effect on androgen (steroid) synthesis, in words (NCI-H295R cells) | IC50 (NCI-H295R cells; [4]) [µM] | Corticosterone, LOEC (NCI-H295R cells; multiple contrast tests) [µM] | Estradiol, LOEC (NCI-H295R cells; multiple contrast tests) [µM] | OH-Progesterone, LOEC (NCI-H295R cells; multiple contrast tests) [µM] | also measured |
| --- | --- | --- | --- | --- | --- | --- | --- | --- | --- | --- | --- |
| COc1ccc(C(=CC(=O)N2CCOCC2)c2ccc(Cl)cc2)cc1OC [Dimethomorph, dimethomorph] | 2.68 | 2 | 1 | 0.01 | 0.3 | inhibited testosterone synthesis | > 50 | 0.8 | 0.8 | 12.5 | Measured concentration in male fetuses ([3]; fetal plasma GD21, dams dosed 20 mg/kg BW per day (Study 3)): 1.35 µM; Androstenedione (relative to controls), mean (NCI-H295R cells; 0.8 µM): 0.83; Testosterone (relative to controls), mean (NCI-H295R cells; 0.8 µM): 0.88; Androstenedione (relative to controls), mean (NCI-H295R cells; 1.6 µM): 0.81; Testosterone (relative to controls), mean (NCI-H295R cells; 1.6 µM): 0.84; Androstenedione (relative to controls), mean (NCI-H295R cells; 3.1 µM): 0.80; Testosterone (relative to controls), mean (NCI-H295R cells; 3.1 µM): 0.76; Androstenedione (relative to controls), mean (NCI-H295R cells; 6.3 µM): 0.89; Testosterone (relative to controls), mean (NCI-H295R cells; 6.3 µM): 0.74; Androstenedione (relative to controls), mean (NCI-H295R cells; 12.5 µM): 0.77; Testosterone (relative to controls), mean (NCI-H295R cells; 12.5 µM): 0.68; Androstenedione (relative to controls), mean (NCI-H295R cells; 25 µM): 0.70; Testosterone (relative to controls), mean (NCI-H295R cells; 25 µM): 0.73; Androstenedione (relative to controls), mean (NCI-H295R cells; 50 µM): 0.67; Testosterone (relative to controls), mean (NCI-H295R cells; 50 µM): 0.67; IC20 (NCI-H295R cells; NCI-H295R): 2.8 µM; DHEA, LOEC (NCI-H295R cells; multiple contrast tests): 25 µM |
| N#Cc1c[nH]cc1-c1cccc2c1OC(F)(F)O2 [Fludioxonil, fludioxonil] | 4.12 | 3 | 1 | 0.01 | 0.3 | inhibited testosterone synthesis | – | 12.5 | 3.1 | 3.1 | Measured concentration in male fetuses ([3]; fetal plasma GD21, dams dosed 60 mg/kg BW per day (Study 3)): 3.3 µM; IC50 (NCI-H295R cells; NCI-H295R cells, NA = not active up to 50μM, read-out: Testosterone inhibition (IC50)): 10.8 µM; IC20 (NCI-H295R cells; NCI-H295R cells): 1.3 µM; Androstendione, LOEC (NCI-H295R cells; multiple contrast tests): 25 µM; Testosterone, lowest observed effect concentration (LOEC) (NCI-H295R cells; multiple contrast tests): 1.6 µM |
| CC12CC1(C)C(=O)N(c1cc(Cl)cc(Cl)c1)C2=O (centres unmarked) [Procymidone, procymidone, reference compound] | 3.08 | 0.04 | – | 0.08 | – | inhibited the synthesis of androgens | 6 | – | – | – | Measured concentration in male fetuses ([3]; male, Sprague-Dawley, rat, in vivo, 40 mg/kg/day): 7.8 µM |
